Measured values as given in ChEMBL document CHEMBL3352804, “One-pot synthesis of polyunsaturated fatty acid amides with anti-proliferative properties” (Bioorg Med Chem Lett, 2014).

Each molecule was assayed on A549 (assay: Growth inhibition of human A549 cells after 48 hrs by trypan blue dye exclusion method). Details: A549, 48 h.
Type: functional, cell-based

Row | SMILES | IC50 [nM]
1 | CC/C=C\C/C=C\C/C=C\C/C=C\C/C=C\C/C=C\CCC(=O)N[C@H](C)CO | 250
2 | CC/C=C\C/C=C\C/C=C\C/C=C\C/C=C\C/C=C\CCC(=O)NC(CO)CO | 480
3 | CC/C=C\C/C=C\C/C=C\C/C=C\C/C=C\C/C=C\CCC(=O)OCC(O)CO (stereo unspecified) | 1500

The molecules below were run on A549 (assay: Growth inhibition of human A549 cells at 3 uM after 48 hrs by trypan blue dye exclusion method). Details: A549, 48 h, read-out: GI.
Type: functional

Row | SMILES | inhibition of growth at 3 µM [%]
4 | CC/C=C\C/C=C\C/C=C\C/C=C\C/C=C\CCCCCC(=O)OCC(O)CO (stereo unspecified) | 74.5
5 | CC/C=C\C/C=C\C/C=C\C/C=C\C/C=C\C/C=C\CCC(=O)NC(CO)C(=O)O (stereo unspecified) | 68.7
6 | CC/C=C\C/C=C\C/C=C\C/C=C\C/C=C\C/C=C\CCC(=O)NCC(O)CNC(=O)CC/C=C\C/C=C\C/C=C\C/C=C\C/C=C\C/C=C\CC | 83.8
7 | CC/C=C\C/C=C\C/C=C\C/C=C\C/C=C\CCCCCC(=O)NC(CO)CO | 97.4
8 | CC/C=C\C/C=C\C/C=C\C/C=C\C/C=C\CCCCCC(=O)NC[C@H](O)CO | 31.6
9 | CC/C=C\C/C=C\C/C=C\C/C=C\C/C=C\C/C=C\CCC(=O)NC[C@@H](O)CO | 48.1
10 | CC/C=C\C/C=C\C/C=C\C/C=C\C/C=C\C/C=C\CCC(=O)NCCNC(=O)CC/C=C\C/C=C\C/C=C\C/C=C\C/C=C\C/C=C\CC | 13
11 | CC/C=C\C/C=C\C/C=C\C/C=C\C/C=C\C/C=C\CCC(=O)N[C@H](C)CO | 98.3
12 | CC/C=C\C/C=C\C/C=C\C/C=C\C/C=C\CCCC(=O)NCCO | 70.9
13 | CC/C=C\C/C=C\C/C=C\C/C=C\C/C=C\C/C=C\CCC(=O)NCC(O)CN (stereo unspecified) | 38.3
14 | CC/C=C\C/C=C\C/C=C\C/C=C\C/C=C\C/C=C\CCC(=O)NC(CO)CO | 77.4
15 | CC/C=C\C/C=C\C/C=C\C/C=C\C/C=C\CCCC(=O)NCCCNC | 67.8
16 | CC/C=C\C/C=C\C/C=C\C/C=C\C/C=C\C/C=C\CCC(=O)OCC(O)CO (stereo unspecified) | 59.1
17 | CC/C=C\C/C=C\C/C=C\C/C=C\C/C=C\C/C=C\CCC(=O)NC[C@H](O)CO | 42.3
18 | CC/C=C\C/C=C\C/C=C\C/C=C\C/C=C\CCCC(=O)NC(C)CO (stereo unspecified) | 98.4
19 | CC/C=C\C/C=C\C/C=C\C/C=C\C/C=C\CCCCCC(=O)NC[C@@H](O)CO | 47.4
20 | CC/C=C\C/C=C\C/C=C\C/C=C\C/C=C\C/C=C\CCC(=O)NCC(O)CO (stereo unspecified) | 88.7
21 | CC/C=C\C/C=C\C/C=C\C/C=C\C/C=C\CCCCCC(=O)NCC(O)CNC(=O)CCCCC/C=C\C/C=C\C/C=C\C/C=C\C/C=C\CC | 97.7
22 | CC/C=C\C/C=C\C/C=C\C/C=C\C/C=C\CCCC(=O)OCC(O)CO (stereo unspecified) | 51.4
23 | CC/C=C\C/C=C\C/C=C\C/C=C\C/C=C\C/C=C\CCC(=O)NCCO | 29.3
24 | CC/C=C\C/C=C\C/C=C\C/C=C\C/C=C\CCCC(=O)OCCCN(C)C | 95
25 | CC/C=C\C/C=C\C/C=C\C/C=C\C/C=C\CCCCCC(=O)NCCO | 96.9
26 | CC/C=C\C/C=C\C/C=C\C/C=C\C/C=C\CCCC(=O)NC(CO)CO | 84.2
